Measurements: US20050196466A1, “Process for inhibiting cell proliferation” (Pharmacyclics, Inc., priority 2004, published 2005)

How the values were obtained:
[1] = system: A549 cells; test: MTT assay, plateau phase A549 cells treated with 1-hydroxypyridine-2-thione, MGd and zinc; format: cell-based, human
Description: (§1) Final mannitol concentration was 0.31% in all wells.

[2] = system: A549 cells; test: MTT reduction proliferation assay, microtiter plate, A549 cells; format: cell-based, human; conditions: zinc by itself at 100 μM
Description: as §1

[3] = system: Ramos cells; test: Cytotoxicity by propidium iodide uptake, flow cytometry; conditions: agent alone
Description: Gated cells with fluorescence at 585 nm from two cultures are shown for each time point. Error bars indicate standard deviation.
In other experiments (FIG. 11), Ramos cells grown in T-25 flasks were treated with a compound of Formula I (where M=Gd) (10 or 50 μM) and zinc (25 or 50 μM) for 1-2 days, Coulter counted, and analyzed by flow cytometry using propidium iodide.

c1cc[n+]2c(c1)[S][Zn]1([O]2)[O][n+]2ccccc2[S]1 [ZnHPT, Zinc complex of 1-hydroxypyridine-2-thione]
effect on A549 cells ([1]; ZnHPT by itself at 0.625 μM, formed in situ from zinc acetate and 1-hydroxypyridine-2-thione, after one day (FIG. 12)): no significant effect | cytotoxic dose of the zinc complex of 1-hydroxypyridine-2-thione ([1]; in the presence of a compound of formula 1): lowered

CC(=O)[O-].CC(=O)[O-].[Zn+2] [zinc, zinc acetate]
effect on A549 cells ([2]; after one day): no significant effect | effect on A549 cells ([2]; after three days): no significant effect | cytotoxicity as assessed by flow cytometry after staining with propidium iodide [3]: did not increase cytotoxicity
